Columns and labels:
[1] = test system: U-937 cells; experiment: H2O2-induced apoptosis (sub-G1 DNA, propidium iodide) in U-937 cells; type: cell-based, human; details: 10 μM 24 hours, then 1 mM H2O2 18 hours
Procedure: (§1) Ethanol-fixed cells were stained with propidium iodide and monitored for sub-G1 DNA (upper panels). The percentage (mean±S.E.) of cells with sub-G1 DNA was determined from three separate experiments (lower panels).
(§2) Ethanol-fixed cells were stained with propidium iodide and monitored for sub-G1 DNA by FACScan (Becton-Dickinson) (FIGS. 3A and 3C). The percentage (mean±S.E.) of cells with sub-G1 DNA was determined from three separate experiments (FIGS. 3B and 3D).

[2] = test system: mouse embryo fibroblasts (MEFs); experiment: Mitochondrial transmembrane potential (Rhodamine123 flow cytometry) in MEFs; type: cell-based; details: 10 μM 24 hours
Procedure: The cells were stained with 50 ng/ml Rhodamine123 for 15 minutes and analyzed by flow cytometry (left panels).
The cells were stained with 50 ng/ml Rhodamine123 (Molecular Probes) for 15 minutes at 37° C. Samples were analyzed by flow cytometry using 488 nm excitation and measurement of emission through a 576/26 (ethidium) bandpass filter (FIGS. 2A and 2B, left panels).

[3] = test system: mouse embryo fibroblasts (MEFs); experiment: H2O2-induced apoptosis (sub-G1 DNA, propidium iodide) in MEFs; type: cell-based; details: 10 μM 24 hours, then 1 mM H2O2 18 hours
Procedure: as §1, §2

SMILES: Cc1ccc(NC(=O)c2ccc(CN3CCN(C)CC3)cc2)cc1Nc1nccc(-c2cccnc2)n1 [STI571, 4-[(4-Methyl-1-piperazinyl)methyl]-N-[4-methyl-3-[[4-(3-pyridinyl)-2-pyrimidinyl]amino-]-phenyl]benzanide methanesulfonate]
- inhibition of H2O2-induced apoptosis (cells with sub-G1 DNA) [1]: over 80%
- effect of STI571 alone on mitochondrial transmembrane potential ([2]; no H2O2): no apparent effect
- H2O2-induced decrease in mitochondrial transmembrane potential ([2]; then 1 mM H2O2 6 hours): substantially inhibited
- inhibitory effects on loss of mitochondrial transmembrane potential at longer periods of H2O2 exposure ([2]; then H2O2 18 hours): detectable
- decrease of H2O2-induced apoptosis (cells with sub-G1 DNA) [3]: 50%

Reference: patent US20060128720A1, “Inhibition of cell death responses induced by oxidative stress” (priority 2002, published 2006)
